{
  "source": "patent US9572878B2",
  "about": "“Method of combination therapy using an EGFR antagonist and anti-c-Met antibody” (SAMSUNG ELECTRONICS CO., LTD., priority 2013, dated 2017)",
  "molecules": {"B1": {"name": "scFv of huAbF46: VH-linker-VL single-chain Fv of the huAbF46 antibody (polynucleotide SEQ ID NO: 55) (protein)", "scFv": "EVQLVESGGGLVQPGGSLRLSCAASGFTFTDYYMSWVRQAPGKGLEWLGFIRNKANGYTTEYSASVKGRFTISRDNSKNTLYLQMNSLRAEDTAVYYCARDNWFAYWGQGTLVTVSSGLGGLGGGGSGGGGSGGSSGVGSDIQMTQSPSSLSASVGDRVTITCKSSQSLLASGNQNNYLAWHQQKPGKAPKMLIIWASTRVSGVPSRFSGSGSGTDFTLTISSLQPEDFATYYCQQSYSAPLTFGQGTKVEIKR"}},
  "key": {"HCC827 ER #15 cell line": {"test_system": "HCC827 ER #15 cell line", "test": "Confirmation of erlotinib resistance, cell number by CCK-8", "type": "cell-based, human", "conditions": "HCC827 ER #15 vs HCC827; various concentrations, 120 hours; FIG. 3", "description": "HCC827 human lung cancer cell line was in vitro treated with an EGFR antagonist erlotinib for a given period to establish HCC827 ER(HCC827 erlotinib-resistant) cell line. More specifically, HCC827 human lung cancer cell line (CRL-2868, ATCC) was in vitro treated with an EGFR antagonist erlotinib (Roche) in an amount of 5 nM to 10 nM for 5 months or more, to construct Erlotinib resistant cell (ER cell) clone."}, "HCC827 ER #15": {"test_system": "HCC827 ER #15", "test": "Combined use of erlotinib and antibodies in erlotinib resistant cell line, cell number by CCK-8", "type": "cell-based, human", "description": "In a 96 well plate, diluted HCC827 ER #15 was seeded at 5000 cells/well in a […] medium (GIBCO) containing 10% FBS, and then, incubated at 37° C. overnight. On the next day, the medium was replaced with a RPMI1640 medium containing 1% FBS (GIBCO), and then, the antibody was serially diluted from 100 ug/ml, and the cells were treated therewith at 100 ul. For co-administration, the cells were treated with 10 nM or 100 nM erlotinib, together with the antibody. After 5 days, the number of cells was measured using a CCK-8 reagent (Dojindo laboratory)."}, "c-Met": {"target": "c-Met (Homo sapiens, UniProt P08581)", "sequence (P08581 25-1390)": "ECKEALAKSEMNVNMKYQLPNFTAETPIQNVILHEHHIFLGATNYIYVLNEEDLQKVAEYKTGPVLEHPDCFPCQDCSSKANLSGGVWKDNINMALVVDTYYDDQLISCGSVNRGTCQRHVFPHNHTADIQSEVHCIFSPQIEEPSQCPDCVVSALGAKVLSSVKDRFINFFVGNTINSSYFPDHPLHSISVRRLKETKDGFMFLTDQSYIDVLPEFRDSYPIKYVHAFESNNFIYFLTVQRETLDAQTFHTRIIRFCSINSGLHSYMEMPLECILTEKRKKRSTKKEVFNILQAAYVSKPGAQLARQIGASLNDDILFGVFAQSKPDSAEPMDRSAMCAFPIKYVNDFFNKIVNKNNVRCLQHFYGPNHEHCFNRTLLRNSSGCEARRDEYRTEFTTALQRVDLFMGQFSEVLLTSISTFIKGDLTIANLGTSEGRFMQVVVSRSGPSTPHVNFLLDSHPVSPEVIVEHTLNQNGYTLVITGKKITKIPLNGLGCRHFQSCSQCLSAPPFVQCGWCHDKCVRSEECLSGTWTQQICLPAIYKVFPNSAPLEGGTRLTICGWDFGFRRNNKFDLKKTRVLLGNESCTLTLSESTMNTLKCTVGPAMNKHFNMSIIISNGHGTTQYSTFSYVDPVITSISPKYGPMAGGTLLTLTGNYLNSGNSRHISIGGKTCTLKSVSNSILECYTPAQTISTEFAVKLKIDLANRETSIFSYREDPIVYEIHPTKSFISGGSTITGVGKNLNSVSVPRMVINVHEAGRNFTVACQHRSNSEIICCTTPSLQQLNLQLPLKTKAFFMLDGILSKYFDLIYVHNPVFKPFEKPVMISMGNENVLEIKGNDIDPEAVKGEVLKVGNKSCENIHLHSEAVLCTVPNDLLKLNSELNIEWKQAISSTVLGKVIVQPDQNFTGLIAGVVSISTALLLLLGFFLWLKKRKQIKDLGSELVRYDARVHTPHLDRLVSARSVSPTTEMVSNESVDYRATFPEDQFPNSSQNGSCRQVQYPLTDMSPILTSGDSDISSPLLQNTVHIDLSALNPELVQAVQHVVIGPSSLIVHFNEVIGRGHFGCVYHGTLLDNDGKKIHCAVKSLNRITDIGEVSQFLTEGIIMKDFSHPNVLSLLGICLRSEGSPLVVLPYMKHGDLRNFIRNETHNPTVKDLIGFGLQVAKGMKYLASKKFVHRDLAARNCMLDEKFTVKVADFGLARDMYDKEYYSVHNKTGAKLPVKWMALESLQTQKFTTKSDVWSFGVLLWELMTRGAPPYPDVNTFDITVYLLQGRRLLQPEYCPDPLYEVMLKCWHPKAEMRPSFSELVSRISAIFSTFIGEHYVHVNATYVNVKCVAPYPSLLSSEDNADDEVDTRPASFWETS", "test": "Specificity of expressed scFv of huAbF46", "type": "binding", "conditions": "expressed scFv product", "source_text": "For use in constructing an scFv of the huAbF46 antibody from the heavy and light chain variable regions of the huAbF46 antibody, a gene was designed to have the structure of “VH-linker-VL” for each of the heavy and the light chain variable region, with the linker having the amino acid sequence “[…]” (SEQ ID NO: 54). A polynucleotide sequence (SEQ ID NO: 55) encoding the designed scFv of huAbF46 was synthesized in Bioneer and an expression vector for the polynucleotide had the nucleotide sequence of SEQ ID NO: 56."}},
  "data": [
    {"molecule": "C#Cc1cccc(Nc2ncnc3cc(OCCOC)c(OCCOC)cc23)c1", "note": "[erlotinib]", "values": [
      {"measurement": "resistance of cell line to EGFR antagonist", "setting": "HCC827 ER #15 cell line", "value": "resistance occurred"}
    ]},
    {"molecule": "Rituximab [reference compound]", "values": [
      {"measurement": "synergistic effect of co-administration with erlotinib", "setting": "HCC827 ER #15; HCC827 ER #15, antibody dilution series with 10 nM or 100 nM erlotinib, 5 days, FIGS. 4a-4d", "value": "synergistic effect was not observed"},
      {"measurement": "synergistic effects on cell viability, co-administration with erlotinib at fixed concentrations", "setting": "HCC827 ER #15; HCC827 ER#15, antibodies 0.14 μg/ml, erlotinib 10 nM, FIG. 5", "value": "synergistic effects were not observed"}
    ]},
    {"molecule": "B1", "values": [
      {"measurement": "specificity to c-Met", "setting": "c-Met", "value": "exhibit specificity to c-Met"}
    ]}
  ]
}
